For 15 compounds, TGI and GI50 results are on record in PubChem BioAssay (NCI).

Test in all cases: NCI anticancer screen, dose series, 48 h
In assay [1] the test system is SNB-78 CNS.
Assay [2] relates to DMS 273 small cell lung.
Assay [3] deals with IGROV1 ovarian.
Assay [4] deals with SNB-19 CNS.
The subject of assay [5] is CCRF-CEM leukemia.
Assay [6] has as its system MOLT-4 leukemia.
Assay [7] concerns M19-MEL melanoma.
The test system of assay [8] is BT-549 breast.
Assay [9] deals with MDA-MB-435.
Assay [10] has as its system NCI/ADR-RES ovarian.

Where “and” joins values, the source holds several entries; their conditions need not be identical. Identical values can stand only once.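 Grown in 96-well plates, cells were treated for 48 hours with each compound at five concentrations. Insufficient inhibition: endpoint recorded as highest concentration tested. At the GI50, growth is halved. TGI denotes the concentration required for complete inhibition of growth.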

Consider `Cc1cccc(C(C)C)c1N1C(=O)C(=O)C(c2nc3ccccc3o2)C(=O)C1=O`, for which the TGI in assay [1] is above 100 µM; in [2], above 100 µM; in [3], above 100 µM; in assay [4], above 100 µM; in [5] it was 63 µM; in assay [6], 63.8 µM. In assay [7], this compound showed a TGI above 100 µM.
As for `Nc1c(O)cc(N=C2C(=O)C=CC=C2C(=O)O)c(O)c1C(=O)O`, the TGI in assay [1] is above 100 µM; in [2], above 100 µM; in [3], above 100 µM; in assay [4], above 100 µM; in assay [6], above 100 µM; in assay [7], 37.9 µM.
For the compound `Cc1noc2c1C(=O)CCC2`, the TGI in [1], in assay [5], in assay [6] and in [7] was above 100 µM throughout.
With `COC(=O)C1C=CCON2CCc3c(n(C)c4ccccc34)C12` (stereo unspecified), the TGI in [1], in assay [2], in assay [3], in [4], in assay [5] and in assay [6] was above 100 µM in each case. In assay [7], this compound showed a TGI above 100 µM.
For the compound `N#CC1CCCCOCCOCCOCCOCCOCCCCCC1=O` (stereo unspecified), the TGI in assay [1], in [2], in [3], in [4], in assay [5] and in [6] was above 100 µM each time. In assay [7], this compound came in with a TGI above 100 µM.
Turning to `Cc1cc(-c2ccccc2)nc(Nc2nc3ccccc3o2)n1`, the TGI in [1], in assay [3], in assay [4], in [5], in [6] and in assay [7] was above 100 µM each time.
As for `Cc1ccc(NC(=O)C2C(=O)N(c3ccc(C)c(C)c3)C(=O)/C2=N\NC(N)=O)cc1C` (stereo unspecified), the TGI in assay [1], in assay [3], in assay [4], in assay [5], in [6] and in [7] was above 100 µM each time.
Take `ON(Cc1ccccc1)C(=S)c1ccccc1`: the TGI in assay [1] was above 100 µM; in assay [2] it was above 76.5 µM; in [8], above 100 µM; in assay [3], above 100 µM; in [4], above 100 µM; in assay [5], above 27 µM. The results for the TGI in assay [6] and in [7] were above 41 µM and above 100 µM, respectively.
With `CN=C(NC(=S)N(C)C)N(C)C`, the TGI in assay [1], in [2], in assay [3], in assay [4], in assay [5] and in assay [6] was above 100 µM throughout. The TGI in assay [7] is above 100 µM.
`O=S(=O)(O)c1ccc(N=Nc2nc(C(F)(F)F)c(C(F)(F)F)[nH]2)cc1`: the TGI is above 100 µM in assay [1]; above 100 µM in assay [2]; above 100 µM in assay [3]; 71.1 µM in [4]; above 100 µM in assay [5]; above 100 µM in assay [6]. The compound also yielded a TGI in [7] above 100 µM.
Turning to `O=C1C2=C(c3ccccc31)C(c1ccccc1)N1C(=O)CSC1=N2` (stereo unspecified), the TGI in assay [9] was 37.3 µM; in assay [2], above 100 µM; in [8] it was 66.5 µM; in [10], 59.1 µM; in [3] it was above 100 µM; in [4] it was above 100 µM. In addition, the TGI in assay [5], in assay [6] and in assay [7] was above 100 µM throughout.
With `COc1cc(NS(C)(=O)=O)ccc1Nc1c2ccccc2nc2ccccc12`, the GI50 was 3.04 µM and 11 µM and 7.26 µM in assay [9]; 5.79 µM and 10.6 µM in [1]; 0.0535 µM and 0.128 µM in [2]; 3.14 µM [middle of 4 runs] in [8]; 1.59 µM and 1.44 µM and 0.826 µM in [3]; 0.528 µM and 0.464 µM and 0.495 µM in assay [4]. Further, the GI50 in assay [5] was 0.0918 µM and 0.182 µM and 0.105 µM; in [6], 0.181 µM and 0.0453 µM and < 0.025 µM; in assay [7] it was 1.54 µM and 5.95 µM. For the same compound, the TGI in assay [1] was 17.7 µM and 36.5 µM and 14.4 µM; in assay [2], 2.72 µM and 12 µM and 2.02 µM; in assay [7], 17.6 µM and 30.8 µM and 8.44 µM.
As to `CCCCCCCCCCCCCCCCNCCCN(C)CCCN`, the TGI was found to be 34.4 µM in [1]; 34.8 µM in assay [2]; 43.1 µM in [3]; 31.5 µM in [4]; 94.1 µM in assay [6]; 41.3 µM in assay [7].
Take `C#CC[N+](C)(CC#C)CC#C`: the TGI in [1], in [2], in [3], in assay [4], in assay [5] and in [6] was above 100 µM throughout. Further, in assay [7], the TGI was above 100 µM.
Consider `O=C(CCC(=O)Nc1ccc(Cl)c(Cl)c1)CC(=O)c1ccc(F)cc1`, for which the TGI in assay [1], in assay [2], in assay [3], in assay [4], in assay [5] and in assay [6] was above 100 µM each time. Moreover, the TGI in assay [7] was above 100 µM.
